This note sets out measurements from PubChem BioAssay AID588363 (Broad Institute, 2011).

The experiment deals with KSHV LANA C-terminal domain (residues 932-1162), DNA binding. Description: inhibitors of C-LANA binding to LBS DNA, dose response, biochemical, fluorescence polarization, MBP fusion, dry powder (AID 588363). As to conditions: for activity change, negative = inhibition: at 35 µM (top of the series).

SMILES strings stand for the structures. Active and inactive are the calls of the source.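 Rule for the calls: active = compounds lowering polarization with half-effect concentration at most ten times their top valid dose; inconclusive = flat fit with 30 to 70 percent drop, or poor fit; inactive = the rest.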

In the case of `O=C(O)C1Nc2ccc(Br)cc2C2C=CCC12` (configuration not stated), the AC50 was 3.33 µM.

`CN(C)S(=O)(=O)c1cc(C(=O)NC2CCSc3ccccc32)ccc1Cl` (configuration not stated): the “activity change, negative = inhibition” value was “inactive”.

Take `Nc1c(/C=C2\C=CC(=O)C(O)=C2)c(=O)nc2sc(CC(=O)N3CCCCC3)nn12`: the “activity change, negative = inhibition” value is “inactive”.

In the case of `O=C(O)CCNc1ccc(NCCC(=O)O)c2c1C(=O)c1ccccc1C2=O`, the AC50 is 24.4 µM.

For `O=C1CCCC(O)=C1N=Nc1ccc(C(=O)O)cc1`, the AC50 was 20.6 µM.

For `CC1=NN(c2cccc(C(=O)O)c2)C(=O)/C1=C\C=C\c1ccco1`, the AC50 is 31.2 µM.

For the compound `O=C1/C(=C/c2ccco2)Oc2c1ccc(O)c2CN1CCCCC1`, the AC50 is 8.54 µM.

`CC(=O)c1ccc2c(c1)C1C=CCC1C(C(=O)O)N2` (configuration not stated): the AC50 was 4.46 µM.

With `Clc1ccc(-c2nnc3sc(-c4ccc(Br)o4)nn23)cc1`, the “activity change, negative = inhibition” value was “inactive”.

For the compound `O=C(O)C1Nc2c(O)cc(Cl)c([N+](=O)[O-])c2C2C=CCC12` (configuration not stated), the AC50 is 13.2 µM.

For the compound `CSc1ccc(/C=N/Nc2cccc(C(=O)O)c2)cc1`, the AC50 was 6.54 µM.

As for `Nc1c(C(=O)Nc2ccccc2F)sc2nc(Cc3ccccc3)cc(C(F)(F)F)c12`, the AC50 was 23.1 µM.

Turning to `CCC(=O)Oc1ccc2c(c1)O/C(=C\c1ccco1)C2=O`, the AC50 was 16.8 µM.

Consider `COC(=O)c1ccccc1NC(=O)CCS(=O)(=O)c1ccc(Br)cc1`, for which the AC50 is 16.1 µM.

`CC1(C)[C@@H](O[C@H]2O[C@H](C(=O)O)[C@@H](O)[C@H](O)[C@H]2O[C@@H]2O[C@H](C(=O)O)[C@@H](O)[C@H](O)[C@H]2O)CC[C@]2(C)[C@H]3C(=O)C=C4[C@@H]5C[C@@](C)(C(=O)O)CC[C@]5(C)CC[C@@]4(C)[C@]3(C)CC[C@@H]12`: the “activity change, negative = inhibition” value is “inactive”.

For the compound `O=c1c(O)cccc2cc(O)c(O)c(O)c12`, the AC50 was 5.21 µM.

On to `O=C(O)c1cc(N2N=C(C(F)(F)F)/C(=C/C=C/c3ccco3)C2=O)ccc1Cl`, for which the concentration at half-maximal activity (AC50) was 6.05 µM.
